Measured values from ChEMBL document CHEMBL6078662, “Discovery of 3-(2-aminobenzo[d]thiazol-5-yl) benzamide derivatives as potent anticancer agents via ROR1 inhibition” (Bioorg Med Chem, 2025).
Active and inactive are the calls of the source. The calls are words filed in the database; no cut-off is given here.

Experiments:
[1] = tested on: NCI-H1975; assay: Antiproliferative activity against human NCI-H1975 cells assessed as inhibition of cell proliferation incubated for 72 hrs by MTT assay; type: functional, cell-based; settings: for IC50: NCI-H1975, 72 h
[2] = tested on: PC-9; assay: Antiproliferative activity against human PC-9 cells assessed as inhibition of cell proliferation incubated for 72 hrs by MTT assay; type: functional, cell-based; settings: for IC50: PC-9, 72 h
[3] = Cytotoxicity against human MRC5 cells assessed as inhibition of cell proliferation incubated for 72 hrs by MTT assay; type: toxicity, cell-based
[4] = tested on: A549; assay: Antiproliferative activity against human A549 cells assessed as inhibition of cell proliferation incubated for 72 hrs by MTT assay; type: functional, cell-based; settings: for IC50: A549, 72 h
[5] = Selectivity index, ratio of IC50 for cytotoxicity against human MRC5 cells assessed as inhibition of cell proliferation to IC50 for antiproliferative activity against human NCI-H1975 cells assessed as inhibition of cell proliferation; type: toxicity, cell-based; settings: MRC5 cells and NCI-H1975 cells, read-out: Ratio IC50
[6] = tested on: NCI-H1975; assay: Induction of cell cycle arrest in human NCI-H1975 cells assessed as reduction in cyclin-D1 expression incubated for 24 hrs by Western blot analysis; type: functional, cell-based; settings: dose 1.75-7 µM
[7] = MRT (0 to infinity) in male Sprague-Dawley rat at 10 mg/kg, po measured upto 24 hrs by LC-MS/MS analysis; type: ADME, organism-based; settings: in vivo
[8] = tested on: NCI-H1975; assay: Effect on N-cadherin expression level in human NCI-H1975 cells incubated for 48 hrs by Western blot analysis; type: functional, cell-based; settings: dose <= 7.0 µM
[9] = biological target: MAP kinase p38 (Homo sapiens) (UniProt O15264+Q15759+Q16539+P53778); assay: Inhibition of p38 phosphorylation in human NCI-H1975 cells upto 7 uM incubated for 48 hrs by Western blot analysis; type: cell-based
[10] = AUC (0 to infinity) in male Sprague-Dawley rat at 10 mg/kg, po measured upto 24 hrs by LC-MS/MS analysis; type: ADME, organism-based; settings: in vivo
[11] = Tmax in male Sprague-Dawley rat at 10 mg/kg, po measured upto 24 hrs by LC-MS/MS analysis; type: ADME, organism-based; settings: in vivo
[12] = tested on: NCI-H1975; assay: Inhibition of colony formation in human NCI-H1975 cells assessed as decrease in number of colonies incubated for 72 hrs by crystal violet staining based assay; type: functional, cell-based; settings: dose 1.75-7 µM
[13] = biological target: Inactive tyrosine-protein kinase transmembrane receptor ROR1 (Homo sapiens) (UniProt Q01973); assay: Binding affinity to ROR1 in human NCI-H1975 cells assessed as protection of pronase-mediated protein degradation preincubated with compound for 1 hr followed by pronase E addition and measured after 10 mins by DARTS assay; type: cell-based; settings: dose <= 100.0 µM, time 70.0 min
Sequence of Inactive tyrosine-protein kinase transmembrane receptor ROR1 (Homo sapiens) (Q01973 whole entry): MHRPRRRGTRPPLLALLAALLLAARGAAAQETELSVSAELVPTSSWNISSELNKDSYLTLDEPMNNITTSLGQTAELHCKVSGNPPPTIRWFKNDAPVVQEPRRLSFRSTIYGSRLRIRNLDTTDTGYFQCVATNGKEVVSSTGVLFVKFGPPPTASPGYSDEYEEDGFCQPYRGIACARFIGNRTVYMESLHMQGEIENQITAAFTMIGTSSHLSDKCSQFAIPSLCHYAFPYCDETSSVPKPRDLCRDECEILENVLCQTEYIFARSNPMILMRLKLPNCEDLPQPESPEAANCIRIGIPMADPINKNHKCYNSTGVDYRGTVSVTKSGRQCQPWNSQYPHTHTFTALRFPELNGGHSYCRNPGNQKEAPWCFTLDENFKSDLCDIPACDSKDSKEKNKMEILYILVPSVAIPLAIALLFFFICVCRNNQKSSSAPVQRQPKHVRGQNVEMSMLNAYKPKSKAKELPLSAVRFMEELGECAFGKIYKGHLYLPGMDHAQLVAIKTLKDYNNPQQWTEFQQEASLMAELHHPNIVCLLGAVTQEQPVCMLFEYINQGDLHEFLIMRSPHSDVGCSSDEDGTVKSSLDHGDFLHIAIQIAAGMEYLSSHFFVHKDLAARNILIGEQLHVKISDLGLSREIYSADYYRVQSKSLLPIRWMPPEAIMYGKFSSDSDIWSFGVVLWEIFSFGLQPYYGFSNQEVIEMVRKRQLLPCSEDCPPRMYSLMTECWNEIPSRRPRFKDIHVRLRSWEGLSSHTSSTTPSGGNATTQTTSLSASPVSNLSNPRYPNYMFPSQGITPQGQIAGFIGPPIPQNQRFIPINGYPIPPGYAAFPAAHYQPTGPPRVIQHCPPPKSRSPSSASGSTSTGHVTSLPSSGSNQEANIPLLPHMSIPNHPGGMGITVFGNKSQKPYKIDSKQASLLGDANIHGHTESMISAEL

[14] = tested on: NCI-H1975; assay: Effect on E-cadherin expression level in human NCI-H1975 cells incubated for 48 hrs by Western blot analysis; type: functional, cell-based; settings: dose <= 7.0 µM
[15] = tested on: NCI-H1975; assay: Induction of cell cycle arrest in human NCI-H1975 cells assessed as accumulation of cells at G1 phase incubated for 24 hrs by PI staining based flow cytometry analysis; type: functional; settings: dose 1.75-7 µM
[16] = tested on: NCI-H1975; assay: Inhibition of SRC phosphorylation in human NCI-H1975 cells upto 7 uM incubated for 48 hrs by Western blot analysis; type: cell-based
[17] = biological target: Inactive tyrosine-protein kinase transmembrane receptor ROR1 (Homo sapiens) (UniProt Q01973); assay: Inhibition of ROR1 phosphorylation in human NCI-H1975 cells upto 7 uM incubated for 48 hrs by Western blot analysis; type: cell-based
[18] = biological target: Inactive tyrosine-protein kinase transmembrane receptor ROR1 (Homo sapiens) (UniProt Q01973); assay: Binding affinity to ROR1 in human NCI-H1975 cells assessed as increase in thermal stability at 10 uM at 57 to 62 degreeC incubated for 4 hrs by CETSA analysis; type: cell-based
[19] = tested on: NCI-H1975; assay: Effect on MMP2 expression level in human NCI-H1975 cells incubated for 48 hrs by Western blot analysis; type: functional, cell-based; settings: dose <= 7.0 µM
[20] = tested on: NCI-H1975; assay: Induction of cell cycle arrest in human NCI-H1975 cells assessed as decrease in accumulation of cells at G2/M phase incubated for 24 hrs by PI staining based flow cytometry analysis; type: functional; settings: dose 1.75-7 µM
[21] = tested on: NCI-H1975; assay: Effect on ZEB1 expression level in human NCI-H1975 cells incubated for 48 hrs by Western blot analysis; type: functional, cell-based; settings: dose <= 7.0 µM
[22] = tested on: NCI-H1975; assay: Anti-invasive activity against human NCI-H1975 cells assessed as reduction in number of invaded cells at 7 uM incubated for 24 hrs by crystal violet staining based light microscopic analysis; type: functional, cell-based
[23] = tested on: NCI-H1975; assay: Effect on Vimentin expression level in human NCI-H1975 cells incubated for 48 hrs by Western blot analysis; type: functional, cell-based; settings: dose <= 7.0 µM
[24] = Half life in male Sprague-Dawley rat at 10 mg/kg, po measured upto 24 hrs by LC-MS/MS analysis; type: ADME, organism-based; settings: in vivo
[25] = Cmax in male Sprague-Dawley rat at 10 mg/kg, po measured upto 24 hrs by LC-MS/MS analysis; type: ADME, organism-based; settings: in vivo
[26] = tested on: NCI-H1975; assay: Inhibition of cell migration in human NCI-H1975 cells assessed as inhibition of wound closure at 1.75 to 7 uM measured at 24 to 48 hrs by wound healing assay; type: functional, cell-based; settings: dose 1.75-7 µM, time 24-48 hrs
[27] = tested on: NCI-H1975; assay: Inhibition of cell migration in human NCI-H1975 cells assessed as inhibition of wound closure at 1.75 to 7 uM by wound healing assay; type: functional, cell-based; settings: dose 1.75-7 µM, time 24-48 hrs
[28] = tested on: NCI-H1975; assay: Inhibition of cell migration in human NCI-H1975 cells assessed as inhibition of wound closure measured at 24 to 48 hrs by wound healing assay; type: functional, cell-based; settings: dose 1.75-7 µM, time 24-48 hrs
[29] = tested on: NCI-H1975; assay: Antiproliferative activity against human NCI-H1975 cells assessed as suppression of cell growth incubated for 72 hrs by MTT assay; type: functional, cell-based; settings: dose 7.0 µM
[30] = tested on: NCI-H1975; assay: Induction of cell cycle arrest in human NCI-H1975 cells assessed as reduction in c-Myc expression incubated for 24 hrs by Western blot analysis; type: functional, cell-based; settings: dose 1.75-7 µM
[31] = tested on: NCI-H1975; assay: Induction of cell cycle arrest in human NCI-H1975 cells assessed as reduction in CDK2 expression incubated for 24 hrs by Western blot analysis; type: functional, cell-based; settings: dose 1.75-7 µM

SMILES: CCC(=O)Nc1nc2cc(-c3cccc(C(=O)NCC4CC4)c3)ccc2s1
- IC50 [1]: > 40 µM
- IC50 [2]: > 40 µM
- IC50 at 72 h [3]: > 80 µM
- IC50 [4]: > 40 µM

SMILES: CC(=O)Nc1nc2cc(-c3ccc4ncn(Cc5ccccc5)c(=O)c4c3)ccc2[nH]1
- IC50 [1]: 1.02 µM
- IC50 [2]: 0.91 µM
- IC50 at 72 h [3]: 1.87 µM
- selectivity ratio [5]: 1.83
- IC50 [4]: 0.83 µM

SMILES: COCCNC(=O)c1cccc(-c2ccc3sc(NC(C)=O)nc3c2)c1
- IC50 [1]: > 40 µM
- IC50 [2]: > 40 µM
- IC50 at 72 h [3]: > 80 µM
- IC50 [4]: > 40 µM

SMILES: COCCNC(=O)c1cccc(-c2ccc3sc(NC(=O)C(C)(C)C)nc3c2)c1
- IC50 [1]: 11.1 µM
- IC50 [2]: > 40 µM
- IC50 at 72 h [3]: > 80 µM
- selectivity ratio [5]: > 7.23
- IC50 [4]: > 40 µM

SMILES: CC(=O)Nc1nc2cc(-c3cccc(C(=O)NCc4ccc(F)cc4)c3)ccc2s1
- IC50 [1]: 9.35 µM
- IC50 [2]: > 40 µM
- IC50 at 72 h [3]: > 80 µM
- selectivity ratio [5]: > 8.56
- IC50 [4]: > 40 µM

SMILES: CC(C)CCNC(=O)c1cccc(-c2ccc3sc(NC(=O)c4ccc(F)cc4)nc3c2)c1
- Activity [6]: Dose-dependent-effect
- MRT inf [7]: 18.7 h
- Activity [8]: Dose-dependent-effect
- inhibition [9]: Active
- AUC(0-inf) [10]: 12400 ng·h/mL
- Tmax [11]: 2 h
- inhibition [12]: Dose-dependent-effect
- Activity [13]: Dose-dependent-effect
- Activity [14]: Dose-dependent-effect
- Activity [15]: Dose-dependent-effect
- inhibition [16]: Active
- IC50 [1]: 3.5 µM
- Activity ([1]; dose <= 40.0 µM): Dose-dependent-effect
- inhibition [17]: Active
- IC50 [2]: 8.11 µM
- Activity ([2]; dose <= 40.0 µM): Dose-dependent-effect
- Activity [18]: Active
- Activity [19]: Dose-dependent-effect
- Activity [20]: Dose-dependent-effect
- Activity [21]: Dose-dependent-effect
- Activity [22]: Active
- Activity [23]: Dose-dependent-effect
- half-life [24]: 10 h
- Cmax [25]: 1120 ng/mL
- inhibition [26]: Active
- inhibition [27]: Time-dependent-effect
- IC50 at 72 h [3]: > 80 µM
- selectivity ratio [5]: > 22.9
- IC50 [4]: 18.2 µM
- Activity ([4]; dose <= 40.0 µM): Dose-dependent-effect
- inhibition [28]: Dose-dependent-effect
- Activity [29]: Dose-dependent-effect
- Activity [30]: Dose-dependent-effect
- Activity [31]: Dose-dependent-effect

SMILES: CC(=O)Nc1nc2cc(-c3cccc(C(=O)NCC4CC4)c3)ccc2s1
- IC50 [1]: > 40 µM
- IC50 [2]: > 40 µM
- IC50 at 72 h [3]: > 80 µM
- IC50 [4]: > 40 µM

SMILES: COCOc1cc(OCOC)c2c(c1)O[C@@H](c1ccc(OC)cc1)CC2=O
- IC50 [1]: 6.06 µM
- IC50 [2]: 10.4 µM
- IC50 at 72 h [3]: > 80 µM
- selectivity ratio [5]: > 13.2
- IC50 [4]: > 40 µM

SMILES: Cc1ccc(CNC(=O)c2cccc(-c3ccc4sc(NC(=O)C(C)(C)C)nc4c3)c2)cc1
- IC50 [1]: 12.4 µM
- IC50 [2]: > 40 µM
- IC50 at 72 h [3]: > 80 µM
- selectivity ratio [5]: > 6.43
- IC50 [4]: > 40 µM

SMILES: CCCNC(=O)c1cccc(-c2ccc3sc(NC(=O)C(C)(C)C)nc3c2)c1
- IC50 [1]: 8.16 µM
- IC50 [2]: > 40 µM
- IC50 at 72 h [3]: > 80 µM
- selectivity ratio [5]: > 9.8
- IC50 [4]: 31.4 µM

SMILES: CNc1cccc(NC(=O)c2ccc(C)c(C#Cc3cnc4cccnn34)c2)c1
- IC50 [1]: 66.7 µM
- IC50 [4]: 27.5 µM

SMILES: CC(=O)Nc1nc2cc(-c3cccc(C(=O)NCCC(C)C)c3)ccc2s1
- IC50 [1]: > 40 µM
- IC50 [2]: 24.7 µM
- IC50 at 72 h [3]: > 80 µM
- IC50 [4]: > 40 µM

SMILES: O=C(NCC1CC1)c1cccc(-c2ccc3sc(NC(=O)c4ccc(F)cc4)nc3c2)c1
- IC50 [1]: > 40 µM
- IC50 [2]: 11.9 µM
- IC50 at 72 h [3]: > 80 µM
- IC50 [4]: > 40 µM

SMILES: CCC(=O)Nc1nc2cc(-c3cccc(C(=O)NCc4ccc(OC)cc4)c3)ccc2s1
- IC50 [1]: > 40 µM
- IC50 [2]: > 40 µM
- IC50 at 72 h [3]: > 80 µM
- IC50 [4]: > 40 µM

SMILES: CC(C)(C)C(=O)Nc1nc2cc(-c3cccc(C(=O)NCC4CC4)c3)ccc2s1
- IC50 [1]: > 40 µM
- IC50 [2]: 21.8 µM
- IC50 at 72 h [3]: > 80 µM
- IC50 [4]: 27.6 µM

SMILES: COc1ccc(CNC(=O)c2cccc(-c3ccc4sc(NC(=O)C(C)(C)C)nc4c3)c2)cc1
- IC50 [1]: 12.3 µM
- IC50 [2]: > 40 µM
- IC50 at 72 h [3]: > 80 µM
- selectivity ratio [5]: > 6.52
- IC50 [4]: > 40 µM

SMILES: CC(C)CCNC(=O)c1cccc(-c2ccc3sc(NC(=O)C(C)(C)C)nc3c2)c1
- IC50 [1]: 4.4 µM
- IC50 [2]: 13.9 µM
- IC50 at 72 h [3]: > 80 µM
- selectivity ratio [5]: > 18.2
- IC50 [4]: > 40 µM

SMILES: CCCC(=O)Nc1nc2cc(-c3cccc(C(=O)NCCOC)c3)ccc2s1
- IC50 [1]: > 40 µM
- IC50 [2]: > 40 µM
- IC50 at 72 h [3]: > 80 µM
- IC50 [4]: > 40 µM

SMILES: Cc1ccc(CNC(=O)c2cccc(-c3ccc4sc(NC(=O)C5CCCCC5)nc4c3)c2)cc1
- IC50 [1]: > 40 µM
- IC50 [2]: > 40 µM
- IC50 at 72 h [3]: > 80 µM
- IC50 [4]: > 40 µM

SMILES: CCC(=O)Nc1nc2cc(-c3cccc(C(=O)NCCOC)c3)ccc2s1
- IC50 [1]: > 40 µM
- IC50 [2]: > 40 µM
- IC50 at 72 h [3]: > 80 µM
- IC50 [4]: > 40 µM

SMILES: COCCNC(=O)c1cccc(-c2ccc3sc(NC(=O)c4ccccc4)nc3c2)c1
- IC50 [1]: 17.7 µM
- IC50 [2]: > 40 µM
- IC50 at 72 h [3]: > 80 µM
- selectivity ratio [5]: > 4.52
- IC50 [4]: > 40 µM
